Patent publication US11866416B2, “Streptococcus mutans glucosyl transferase inhibitors for dental caries therapy” (UAB Research Foundation, priority 2018, dated 2024)
Converted amounts (≈) assume the structure as drawn. Like-named read-outs stand apart in the source and are kept apart here.

Experiments:
[1] = tested on: S. mutans; assay: microbe, parasite or virus in culture; type: cell-based, Streptococcus mutans; conditions: Streptococcus mutans, >300 = no inhibition up to 300 μM, read-out: Growth Inhibition MIC50
Experimental: Cell viability of S. mutans, S. gordonii, S. sanguinis, Aggregatibacter actinomycetemcomitans and Actinomyces. […] The number of colony-forming units (CFU) per milliliter of each sample treated with selected compounds at different concentrations was enumerated after incubation for 24 h at 37° C. and compared to the values obtained from the DMSO control group. Overnight broth cultures were transferred by 1:50 dilutions into fresh THB medium and were allowed to grow until mid-exponential phase (OD470 nm 0.6) before transfer to 96-well plates containing desired concentration of the compound. After 16 h incubation, bacterial growth was measured at OD470, and normalized to the DMSO control (100%).
Cell viability of S. mutans and commensal S. gordonii and S. sanguinis. Effects of lead small molecules on cell viability were examined. The number of colony-forming units (CFU) per milliliter for each compound at different concentrations was determined after incubation for 24 h at 37° C. and compared to the values obtained from the DMSO control group.
Cell viability of S. mutans and commensal S. gordonii and S. sanguinis. […] DMSO served as a control group and provided a relative comparison for the number of colony-forming units (CFU) per milliliter for each compound at different concentrations was determined after incubation for 24 h at 37° C. The final concentration of DMSO used in the assays was 1%.

[2] = tested on: S. mutans biofilm; assay: S. mutans biofilm formation and inhibition assay (96-well plates, crystal violet); type: cell-based, Streptococcus mutans; conditions: Streptococcus mutans, read-out: Biofilm Inhibition IC50
Experimental: Biofilm assays using 96-well flat-bottom polystyrene microtiter plates were performed to evaluate S. mutans biofilm formation at various conditions as described (Liu et al. (2011) Antimicrobial Agents and Chemotherapy 55, 2679; Zhang et al. (2015) International Journal of Antimicrobial Agents 46, 174), the disclosures of which are incorporated herein by reference in their entirety). Each assay was replicated three times. Compounds that inhibited biofilm formation at minimum concentration (MBIC) were determined by serial dilutions.
S. mutans biofilm formation and inhibition assays. […] Each assay was replicated three times. Minimum biofilm inhibitory concentration (MBIC) of compounds was determined by serial dilutions.
S. mutans biofilm formation and inhibition assays. Biofilm assays using 96-well flat-bottom polystyrene microtiter plates were performed to evaluate S. mutans biofilm formation at various conditions as described. Each assay was replicated […]. Compounds that inhibited 50% biofilm formation were determined by serial dilutions.
S. mutans biofilm formation and inhibition assays. A well-established protocol to study S. mutans biofilm formation in 96-well flat-bottom polystyrene microtiter plates was used, in triplicate (Mattos-Graner, R. O.; Napimoga, M. H.; Fukushima, K.; Duncan, M. J.; Smith, D. J., Comparative analysis of Gtf isozyme production and diversity in isolates of Streptococcus mutans with different biofilm growth phenotypes. Journal of clinical microbiology 2004, 42 (10), 4586-4592). The stock solutions were made up in 100% DMSO, and final concentration of DMSO used in the assays was 1%. Minimum biofilm inhibitory concentration (MBIC) of compounds was determined by serial dilutions.

[3] = Table 1, >500 = no inhibition up to 500 μM

| Structure (SMILES) | MIC50 ([1]; Table 2) [µM] | IC50 [2, 3] [µM] | IC50 ([2]; Table 2) [µM] | MIC50 ([1]; Table 3, NI = no inhibition up to 400 μM) [µM] | IC50 ([2]; Table 3) [µM] |
| --- | --- | --- | --- | --- | --- |
| COC(=O)c1cccc(NC(=O)c2cnc3ccccc3c2)c1 [AA] | > 300 | 147 | 147 |  |  |
| COC(=O)c1cccc(NC(=O)c2cc3cc([N+](=O)[O-])ccc3[nH]2)c1 [AB] | > 300 | 31.4 | 31.4 |  |  |
| COC(=O)c1ccc(NC(=O)c2cc3cc([N+](=O)[O-])ccc3o2)cc1 [AC] | > 300 | 144 | 144 |  |  |
| Cc1ccc(S(=O)(=O)Nc2cccc(NC(=O)c3cc4cc([N+](=O)[O-])ccc4s3)c2)cc1 [AD] | > 300 | 63.7 | 63.7 |  |  |
| COC(=O)c1cccc(NC(=O)c2cc3cc([N+](=O)[O-])ccc3o2)c1 [AE] | > 300 | 2.7 | 2.7 |  |  |
| NC(=O)c1ccccc1OC(=O)c1cc2ccccc2s1 [AF] |  | > 500 |  |  |  |
| NC(=O)c1ccc(NC(=O)c2cc3cc([N+](=O)[O-])ccc3o2)cc1 [AG] |  | 239 |  |  |  |
| NCc1ccccc1NC(=O)c1ccc2ccccc2c1 [AH] | > 300 | 160 | 160 |  |  |
| CC(C)(C)OC(=O)NCc1ccccc1NC(=O)c1cc2ccccc2s1 [AI] | > 300 | 43.4 | 43.4 |  |  |
| CC(C)(C)OC(=O)NCc1ccccc1NC(=O)c1cc2cc([N+](=O)[O-])ccc2s1 [AJ] | > 300 | 51.5 | 51.5 |  |  |
| CC(C)(C)OC(=O)NCc1ccccc1NC(=O)c1cnc2ccccc2c1 [AK] | > 300 | 52.8 | 52.8 |  |  |
| NCc1ccccc1NC(=O)c1cnc2ccccc2c1 [AL] | > 300 | 136 | 136 |  |  |
| NCc1ccccc1NC(=O)c1cc2cc([N+](=O)[O-])ccc2s1 [AM] | > 300 | 106 | 106 |  |  |
| NCc1ccccc1NC(=O)c1cccc2ccccc12 [AN] | > 300 | 93.3 | 93.3 |  |  |
| CC(C)(C)OC(=O)NCc1ccccc1NC(=O)c1ccc2ccccc2c1 [AO] | > 300 | 56.8 | 56.8 |  |  |
| COc1cc(OC)c(-c2oc3ccccc3c(=O)c2O)cc1OC [AP-I-240] |  |  |  | 15.3 ± 3 (≈ 5.02 µg/mL) | 10.1 ± 1 |

| Structure (SMILES) | MIC50 ([1]; Table 2) [µM] | IC50 [2, 3] [µM] | IC50 ([2]; Table 2) [µM] | MIC50 ([1]; Table 3, NI = no inhibition up to 400 μM) [µM] | IC50 ([2]; Table 3) [µM] |
| --- | --- | --- | --- | --- | --- |
| CC(C)(C)OC(=O)NCc1ccccc1NC(=O)c1ccc2ccccc2n1 [AP] | > 300 | 67.5 | 67.5 |  |  |
| NC(=O)c1ccccc1OC(=O)c1ccc(-c2ccccc2)cc1 [AQ] | > 300 | 55.6 | 55.6 |  |  |
| NC(=O)c1cccc(NC(=O)c2ccc(-c3ccccc3)cc2)c1 [AR] | > 300 | 79.9 | 79.9 |  |  |
| NC(=O)c1ccccc1NC(=O)c1ccc2ccccc2c1 [AS] |  | 84.1 |  |  |  |
| NC(=O)c1cccc(NC(=O)c2ccc3ccccc3c2)c1 [AT] | > 300 | 67.7 | 67.7 |  |  |
| NC(=O)c1ccccc1NC(=O)c1ccc(-c2ccccc2)cc1 [AU] |  | > 500 |  |  |  |
| NC(=O)c1cccc(NC(=O)c2ccc3ccccc3n2)c1 [AV] | > 300 | 111 | 111 |  |  |
| NC(=O)c1ccc(NC(=O)c2ccc3ccccc3c2)cc1 [AW] |  | > 500 |  |  |  |
| NC(=O)c1ccccc1OC(=O)c1ccc2ccccc2c1 [AX] | > 300 | 98.3 | 98.3 |  |  |
| NC(=O)c1ccccc1NC(=O)c1ccc2ccccc2n1 [AY] |  | > 500 |  |  |  |
| COC(=O)c1ccccc1NC(=O)c1ccc2ccccc2c1 [AZ] | > 300 | 121 | 121 |  |  |
| NC(=O)c1ccccc1OC(=O)c1cc2cc([N+](=O)[O-])ccc2o1 [BA] |  | 279 |  |  |  |
| COC(=O)c1ccccc1NC(=O)c1cc2cc([N+](=O)[O-])ccc2o1 [BB] | > 300 | 71.4 | 71.4 |  |  |
| NC(=O)c1ccc(NC(=O)c2ccc3ccccc3n2)cc1 [BC] | > 300 | 54.4 | 54.4 |  |  |
| COC(=O)c1ccccc1NC(=O)c1ccc2ccccc2n1 [BD] | > 300 | 89.5 | 89.5 |  |  |
